In brackets after ≈: the same amount, converted by molar mass.
How the values were obtained:
Format in all cases: cell-based, Clostridium autoethanogenum
[1] = test system: C. autoethanogenum LZ1561; experiment: Growth of C. autoethanogenum LZ1561 challenged with 2-HIBA in serum bottles; design: growth rate μ, Set 1 / growth rate μ, Set 2: unit not given here
Procedure: Clostridium strains were grown at 37° C. in PETC media at pH 5.6 using standard anaerobic techniques (Hungate, Meth Microbiol, 3B: 117-132, 1969; Wolfe, Adv Microb Physiol, 6: 107-146, 1971). Fructose (heterotrophic growth) or 30 psi CO-containing steel mill gas (collected from New Zealand Steel site in Glenbrook, NZ; composition: 44% CO, 32% N2, 22% CO2, 2% H2) in the headspace (autotrophic growth) was used as substrate. For solid media, 1.2% bacto agar (BD, Frankton Lakes, N.J. 07417, USA) was added.
Two sets of serum bottle experiments were performed with media containing 0, 0.5, 1, 1.5, 2, 3, or 4 g/L of 2-HIBA. An average of optical density (OD) data from both sets of growth experiments was plotted. Data points outside the visually observed exponential growth phase were removed and the growth rate (g) for each concentration of 2-HIBA was calculated by fitting an exponential trend line (FIG. 1).
FIGS. 1A-1D show the growth rates of C. autoethanogenum challenged with different concentrations of 2-HIBA. FIG. 1A and FIG. 1B show the respective difference in growth curves for the two sets of growth experiments (n=3). FIG. 1C and FIG. 1D show exponentially fitted lines corresponding to FIG. 1A and FIG. 1B, respectively. […] To extract the growth rate from the trend line equations, the following equation was used OD=OD0Xe^μt, where OD=y, t=x in the trend line equations, providing the calculated growth rates listed below.
The growth rates (μ) were plotted in Prism6 (GraphPad, USA) as μ vs log10 [2-HIBA] to determine the concentration of 2-HIBA at which the growth rate of C. autoethanogenum is 50% (FIG. 2).

C. autoethanogenum = experiment: Toxicity of 2-HIBA under continuous fermentation (CSTR), gas uptake and metabolite monitoring; conditions: early effect on gas uptake and metabolite production
Source text: CSTRs were inoculated with C. autoethanogenum and brought to a stable optical density (OD600 nm) and dilution rate (D˜1.5). For all fermentations in CSTRs, chemically defined media was used containing no yeast extract. Parameters were monitored on an hourly basis, including metabolites (measured by HPLC) and gas composition in/out (measured by GC). Early effects of 2-HIBA on culture metabolism included a measurable reduction in CO and/or H2 utilization rates, followed by a decline in metabolite production rate. Two CSTRs were run in parallel and received the same inoculum and media in flow rate and composition. The reactors were turned continuous at day 0.9 with media containing 1.5 g/L 2-HIBA at a dilution rate of 1.5. […] The process was then repeated on the same culture in one reactor while the other served as a control. Following introduction of 2-HIBA, the metabolic profile of C. autoethanogenum shifted to favor 2,3-butanediol production, capping ethanol production. Biomass production was reduced under increasing inflow from 2-HIBA and overall metabolic levels drop caused by reduced CO and H2 uptake. By removing 2-HIBA from the inflow media, gas uptake and metabolic production is stabilized. This indicates a reversible reaction to 2-HIBA. The average effect level of 2-HIBA in a continuous CSTR system was calculated as 1.15 g/L.

[2] = test system: C. autoethanogenum LZ1561; experiment: Selection of a 2-HIBA tolerant strain in continuous fermentation
Procedure: Microorganisms unable to cope with the increasing 2-HIBA concentration were diluted out from the fermentation system, while microorganisms with improved tolerance were retained. Glycerol stocks were collected as the culture resistance improved. CSTRs were inoculated with C. autoethanogenum LZ1561. The reactors were started in batch mode and turned to continuous mode at a dilution rate of 1.5 after approximately 40 hours. Once operationally stable, 2-HIBA (1.1 g/L) was added to the feeding media which was run into the reactor at a dilution rate of 1.5. […] During selection in continuous fermentation, the 2-HIBA concentration tolerated by the C. autoethanogenum LZ1561 culture was reproducibly raised from 1.1 g/L to 6.7 g/L ([…]) by slowly increasing the 2-HIBA concentration over a period of 85 days.

CC(C)(O)C(=O)O [2-HIBA, 2-hydroxyisobutyric acid]
IC50 ([1]; Clostridium autoethanogenum, LZ1561, μ vs log10 [2-HIBA], read-out: IC50 (concentration of 2-HIBA at which the growth rate is 50%)): 2200 µg/mL (≈ 21.1 mM) | growth rate μ, Set 1 ([1]; [2-HIBA] 0.5 g/L): 0.096 | growth rate μ, Set 2 ([1]; [2-HIBA] 0.5 g/L): 0.104 | growth rate μ, Set 1 ([1]; [2-HIBA] 1 g/L): 0.092 | growth rate μ, Set 2 ([1]; [2-HIBA] 1 g/L): 0.105 | growth rate μ, Set 1 ([1]; [2-HIBA] 1.5 g/L): 0.078 | growth rate μ, Set 2 ([1]; [2-HIBA] 1.5 g/L): 0.089 | growth rate μ, Set 1 ([1]; [2-HIBA] 2 g/L): 0.082 | growth rate μ, Set 2 ([1]; [2-HIBA] 2 g/L): 0.090 | growth rate μ, Set 1 ([1]; [2-HIBA] 3 g/L): 0.001 | growth rate μ, Set 2 ([1]; [2-HIBA] 3 g/L): 0.004 | growth rate μ, Set 1 ([1]; [2-HIBA] 4 g/L): 0.004 | growth rate μ, Set 2 ([1]; [2-HIBA] 4 g/L): −0.005 | effect on growth ([1]; concentration up to 1 g/L of 2-HIBA): little or no effect | effect on growth ([1]; over 2 g/L of 2-HIBA): acute | effect on growth ([1]; up to a concentration of 2 g/L of 2-HIBA): relatively small effect | average effect level of 2-HIBA in a continuous CSTR system (C. autoethanogenum): 1.15 g/L | increase in tolerance ([2]; 1.1 g/L to 6.7 g/L during selection in continuous fermentation): 600% | 2-HIBA concentration tolerated by the culture ([2]; C. autoethanogenum LZ1561 culture at start of selection): 1.1 g/L | 2-HIBA concentration tolerated by the culture ([2]; after slowly increasing the 2-HIBA concentration over a period of 85 days): 6.7 g/L
